The source made the active and inactive calls. The rule behind the calls is not given here.
What follows are molecules tested against X-box-binding protein 1 (Homo sapiens) (UniProt P17861) (assay: inhibitors of XBP1 reporter signal, dose response, counter-screen, cell-based (AID 504313;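 note: CHO cells carrying an XBP1 reporter stimulated with tunicamycin; potency is for inhibition of the tunicamycin-induced reporter signal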)). Details: XBP1 reporter cell assay, percent of control.
For `CCCCCCn1c(-c2ccco2)nc2oc3cc(OC)ccc3c(=O)c2c1=O`, the IC50 was > 10 µM (inactive). In the case of `CCCCn1c(NS(=O)(=O)c2ccc(C)cc2)c(S(=O)(=O)c2ccccc2)c2nc3ccccc3nc21`, the IC50 is reported as > 10 µM (inactive). For `COc1cccc(-c2nnc(NC(=O)c3ccc(S(=O)(=O)N(CC(C)C)CC(C)C)cc3)o2)c1`, the IC50 was “inactive”. With `CCCOc1ccccc1C1CC(=O)NC(C)=C1C(=O)OCC(C)C` (configuration not stated) the IC50 was “inactive”. For `Oc1ccc(/C=N/Nc2nc(-c3ccc(Cl)cc3)cc(C(F)(F)F)n2)cc1`, the IC50 was > 10 µM (inactive). `C/C=C/Cn1c(SCCCc2ccccc2)nc2c1c(=O)[nH]c(=O)n2C` was tested, and the IC50 was > 10 µM (inactive). With `CCc1ccc(OCC(=O)NC(NC(=S)Nc2ccccc2)C(Cl)(Cl)Cl)cc1` (configuration not stated) the IC50 was > 10 µM (inactive). For `O=C(OCn1ncc(Cl)c(Cl)c1=O)c1ccc(C(F)(F)F)cc1`, the IC50 was > 10 µM (inactive). `COC(=O)c1ccc2c(c1)C(C)(C)C(/C=C/c1ccc(OC)c(OC)c1OC)=[N+]2C` was tested, and the IC50 was “inactive”. For `O=C(/C=C/Sc1ncn[nH]1)c1ccc(Cl)cc1`, the IC50 was “inactive”. `CCN(CC)S(=O)(=O)c1cccc(NC(=O)Nc2cccc(C(F)(F)F)c2)c1` was tested, and the IC50 was “inactive”. With `Cc1ccc(CNCc2cc3c(C(C)(C)C)nn(-c4ccccc4)c3[nH]c2=O)cc1` the IC50 was “inactive”. `Cc1cccc(/C=C2/S/C(=N/N=C3\CC4CCC3(C)C4(C)C)NC2=O)c1` (configuration not stated) was tested, and the IC50 was “inactive”. In the case of `Cc1cccc(N2CCN(C(=O)CS(=O)(=O)Cc3nc(-c4ccccc4F)oc3C)CC2C)c1` (configuration not stated), the IC50 is reported as > 10 µM (inactive). For `O=C1C(Cl)=C(Nc2ccccc2)C(=O)c2ccccc21`, the IC50 was “inactive”. `COC(=O)CN1C(=S)N(Cc2ccccc2)C(=O)C1CC(=O)Nc1ccc(Br)cc1` (configuration not stated) was tested, and the IC50 was 5.87 µM. `Nc1c(C(=O)Nc2nc3ccccc3s2)sc2nc(-c3cccs3)ccc12` was tested, and the IC50 was “inactive”. For `CCC(C)c1ccc(O)c(NC(=O)c2cncc(Br)c2)c1` (configuration not stated), the IC50 was “inactive”. `O=c1oc2ccccc2c(Cl)c1CN1CCCCC1` was tested, and the IC50 was “inactive”. For `O=C1C(N2CCOCC2)=C(n2nnc3ccccc32)C(=O)c2ccccc21`, the IC50 was “inactive”. With `FC(F)(F)c1ccc(/C=N/NC(=S)NC2CCCCC2)cc1` the IC50 was > 10 µM (inactive). With `CC(=O)/C=C/n1c(=S)oc2ccccc21` the IC50 was “inactive”. In the case of `Cc1cc(C)n(-c2nc(N(c3ccccc3)c3ccccc3)nc(-n3nc(C)cc3C)n2)n1`, the IC50 is reported as “inactive”. In the case of `CCN1/C(=C\C=C\C2=[N+](CC)c3ccccc3C2(C)C)C(C)(C)c2ccccc21`, the IC50 is reported as < 0.16 µM. In the case of `Cc1nc(NC(=O)CSc2nc3cccnc3n2Cc2ccccc2)sc1C`, the IC50 is reported as > 10 µM (inactive). For `CC(C)(C)OC(=O)CNC(=O)c1[nH]cnc1C(=O)Nc1ccc(Cl)cc1`, the IC50 was “inactive”. With `Cc1ccc(C)c(NC(=S)NC(NC(=O)/C=C/c2ccccc2)C(Cl)(Cl)Cl)c1` (configuration not stated) the IC50 was > 10 µM (inactive). `O=C(NCc1nc(-c2ccc(C(F)(F)F)cc2)no1)Nc1cc(Cl)cc(Cl)c1` was tested, and the IC50 was “inactive”. `O=C1C(Nc2ccc(O)cc2)=C/C(=N/S(=O)(=O)c2cccs2)c2ccccc21` was tested, and the IC50 was 1.21 µM. For `C[C@H](NC(=O)c1[nH]cnc1C(=O)Nc1ccc(CNC(=O)OC(C)(C)C)cc1)C(=O)OC(C)(C)C`, the IC50 was “inactive”. In the case of `C/C(=N\OCc1cccc(C(=O)O)c1)c1ccc(Cl)cc1`, the IC50 is reported as “inactive”. `O=C(NNc1ccccc1[N+](=O)[O-])Nc1ccc(Cl)c(Cl)c1` was tested, and the IC50 was > 10 µM (inactive). `CCCOc1ccc(Cc2c(Cl)nc(SC)nc2NC)cc1` was tested, and the IC50 was > 10 µM (inactive). With `C=CCn1c(CCNC(=O)c2ccc(Cl)c(Cl)c2)nnc1SCCOc1ccc(OC)cc1` the IC50 was > 10 µM (inactive). `CC1=C/C(=N\OS(=O)(=O)c2ccccc2)C(C)=CC1=O` showed an IC50 of 2.69 µM. `O=C(Nc1ccc([N+](=O)[O-])cc1)Nc1ccc(OC(F)F)c(Cl)c1` was tested, and the IC50 was “inactive”. For `N#CC1=C(N)N2C(=C(C#N)C1c1cccc(Br)c1)Nc1ccccc12` (configuration not stated), the IC50 was “inactive”. For `CCCCn1c(N2CCC(Cc3ccccc3)CC2)nc2c1c(=O)[nH]c(=O)n2C`, the IC50 was > 10 µM (inactive). For `Cc1cc(C(=O)CCl)c(C)n1-c1cccc(S(=O)(=O)N2CCOCC2)c1`, the IC50 was > 10 µM (inactive). For `FC(F)(F)c1cccc(NC(=S)NC(c2ccccc2)c2ccccc2)c1`, the IC50 was > 10 µM (inactive). For `COc1ccc(NC(=O)c2cc(-c3cc(C)cc(C)c3O)n[nH]2)cc1Cl`, the IC50 was > 10 µM (inactive). `CCOC(=O)C1=C(c2ccccc2)O/C(=C(/C#N)C(F)(F)F)S1` was tested, and the IC50 was > 10 µM (inactive). With `COC(=O)C[C@]1(C(=O)OC)CN(C#N)N(c2ccc(Cl)cc2)C12c1ccccc1-c1ccccc12` the IC50 was 4.38 µM. For `CC(C)C[C@H](NC(=O)c1[nH]cnc1C(=O)Nc1ccccc1)C(=O)OC(C)(C)C`, the IC50 was “inactive”. In the case of `CCOc1cc(/C=N/NC(=O)Cc2ccc(C(F)(F)F)cc2[N+](=O)[O-])c(Br)cc1OC`, the IC50 is reported as “inactive”. `CCOc1ccc(/C=N/NC(=O)c2cc(-c3ccco3)nc3ccccc23)cc1` was tested, and the IC50 was “inactive”. In the case of `Cc1nc(Nc2ccc(F)cc2)[nH]c(=O)c1CCC(C)C`, the IC50 is reported as “inactive”. In the case of `O=C(Cc1csc(Nc2nc(=S)[nH]c3ccccc23)n1)NCCCN1CCN(c2ccccc2F)CC1`, the IC50 is reported as > 10 µM (inactive). In the case of `CCOC(=O)Cc1cc(-c2ccc(O)cc2)nc2ccc3ccccc3c12`, the IC50 is reported as > 10 µM (inactive). For `Cc1nn(C(C)(C)C)c(C)c1/C=N/OC(=O)Nc1ccc(Cl)cc1`, the IC50 was < 0.16 µM. `CCCC(=O)NC(NC(=S)Nc1ccc(N=Nc2ccccc2)cc1)C(Cl)(Cl)Cl` (configuration not stated) was tested, and the IC50 was > 10 µM (inactive). `Cc1ccc(N2C(=O)NC(=O)/C(=C\C=C\c3ccco3)C2=O)cc1` was tested, and the IC50 was “inactive”. Molecule `Nc1ccc2oc(-c3cc(Br)ccc3Cl)nc2c1` has an IC50 of 0.39 µM. In the case of `O=c1cc(-c2c(F)c(F)c(F)c(F)c2F)oc2c(F)c(F)c(F)c(F)c12`, the IC50 is reported as 4.69 µM. With `OC(CNCCc1ccc(C(F)(F)F)cc1)COc1ccc2ccccc2c1` (configuration not stated) the IC50 was “inactive”. For `O=C(Nc1ccccc1NC(=O)NC1CCCCC1)NC1CCCCC1`, the IC50 was “inactive”. `O=C1N(c2ccccc2)C[C@@H]2C[C@@H](c3cccs3)N3CCC[C@@]123` was tested, and the IC50 was 2.84 µM. With `CS(=O)(=O)c1nc(-c2ccco2)cc(C(F)(F)F)n1` the IC50 was “inactive”. Molecule `COc1ccc(NC(=O)/C(Cl)=C(/Cl)S(=O)Cc2ccc(Cl)cc2)cn1` (configuration not stated) has an IC50 of 3.27 µM. `COc1cccc(N2CCN(c3ncnc4c3[nH]c3ccccc34)CC2C)c1` (configuration not stated) was tested, and the IC50 was “inactive”. For `C=CCOC(=O)C1=C(C)NC(C)=C(C(=O)OCC=C)C1/C=C/c1ccccc1`, the IC50 was “inactive”. In the case of `CCOC(=O)N=Nc1c2ccccc2c2nc3no[nH]c3nc12`, the IC50 is reported as “inactive”. In the case of `O=C(Nc1ccc(-c2nc3ccccc3s2)cc1)C1=COCCO1`, the IC50 is reported as “inactive”. `O=c1c(Cl)c(Cl)cnn1Cc1nnc(-c2ccccc2Br)o1` was tested, and the IC50 was “inactive”. With `COc1ccccc1-c1cc(C(F)(F)F)nc(S(=O)(=O)CCCC(=O)Nc2cc(C)on2)n1` the IC50 was “inactive”. `CCCCN=c1scc(-c2ccc3c(c2)NC(=O)CO3)n1N=C1CCCC1` was tested, and the IC50 was “inactive”. `CCCCc1nc2ccccc2c(=O)n1NC(=O)c1c(O)c2ccccc2n(C)c1=O` was tested, and the IC50 was > 10 µM (inactive). `CCc1ccc(OCC(=O)NC(NC(=S)Nc2ccc(C)cc2C)C(Cl)(Cl)Cl)cc1` (configuration not stated) was tested, and the IC50 was “inactive”. In the case of `O=C(Nc1cc(N2CCOCC2)ncn1)NC1(C(F)(F)F)Oc2ccc(Cl)cc2O1` (configuration not stated), the IC50 is reported as > 10 µM (inactive). In the case of `CCNc1nc(Oc2c(Cl)cccc2Cl)cc(C(F)(F)F)n1`, the IC50 is reported as > 10 µM (inactive). With `O=C(NC1CCCCC1)C(c1ccc(F)cc1)N(Cc1ccccc1)C(=O)CN1C(=O)c2ccccc2S1(=O)=O` (configuration not stated) the IC50 was “inactive”. In the case of `CCN1/C(=C/C=C/C=C/c2sc3ccccc3[n+]2CC)Sc2ccccc21`, the IC50 is reported as 2.4 µM. `CC1(C)C[C@H]2C=C(C=O)[C@]3(C=O)C[C@]3(C)[C@H]2C1` was tested, and the IC50 was 2.35 µM. For `O=C(NNC(=O)c1cccc2ccccc12)c1ccc(-c2ccccc2)cc1`, the IC50 was > 10 µM (inactive). With `CCOc1cc(/C=C2/C(=O)ON=C2C)ccc1OCc1ccc(F)cc1` the IC50 was > 10 µM (inactive). With `CCn1c(=O)c(C(=O)Nc2nc3ccccc3[nH]2)c(O)c2ccccc21` the IC50 was “inactive”. With `CN1CCc2c(sc(NC(=O)c3cc4cc([N+](=O)[O-])ccc4s3)c2C(N)=O)C1` the IC50 was > 10 µM (inactive). `CCOc1ccc2nc(NC(=O)CSc3nc4c(c(=O)n(C)c(=O)n4C)n3C(C)C)sc2c1` was tested, and the IC50 was > 10 µM (inactive). With `COc1ccc(Cn2c(SCc3cc(C)ccc3C)nc3cc(OC)c(OC)cc3c2=N)cc1` the IC50 was “inactive”. `Cc1cc(-c2n[nH]c(=S)n2/N=C/C(Br)=C/c2ccccc2)n[nH]1` was tested, and the IC50 was “inactive”. `CCCCCCn1c(=O)c(C(=O)N/N=C/c2cccc(F)c2)c(O)c2ccccc21` was tested, and the IC50 was “inactive”. For `Cc1ccc(Nc2nc(N)c([N+](=O)[O-])c(N3CCC(C)CC3)n2)cc1C`, the IC50 was “inactive”. In the case of `Cc1cccc(NC(=O)CSc2nc(C)c(CC(=O)c3ccc(Br)cc3)c(C)c2C#N)c1C`, the IC50 is reported as “inactive”. In the case of `CC(C)(C)C1CCC(C(=O)OCC(=O)c2ccc[nH]2)CC1` (configuration not stated), the IC50 is reported as “inactive”. `CCOc1cc(C(=O)CSc2nnc(CNc3ccc(Cl)cc3)o2)ccc1NC(=O)CC` was tested, and the IC50 was “inactive”. For `C=CCn1c(SCC(=O)c2[nH]c(C)c(C(=O)OC)c2C)nc2scc(-c3ccc(OC)c(OC)c3)c2c1=O`, the IC50 was “inactive”. For `Cn1c(=O)c([N+](=O)[O-])c(Cl)c2ccccc21`, the IC50 was “inactive”. `CCCCCCn1c(=O)c(C(=O)Nc2cnccn2)c(O)c2ccccc21` was tested, and the IC50 was 1.8 µM. In the case of `CCOc1cc(/C=N\NC(=O)Cc2ccccc2)ccc1OCC(=O)Nc1ccc(C)c(C)c1`, the IC50 is reported as “inactive”. `Cc1cc2c(cc1C)CSC(c1c(O)ccc3ccccc13)SC2` was tested, and the IC50 was > 10 µM (inactive). For `CCOC(=O)C1=C(c2ccc(OC)cc2)C(=O)c2ccccc2C1=O`, the IC50 was “inactive”. Molecule `O=C(OCn1ncc(Br)c(Br)c1=O)c1c(F)cccc1F` has an IC50 of 3.06 µM. With `O=S(=O)(N/N=C/c1ccc(Cl)cc1)c1ccc(Cc2ncc(C(F)(F)F)cc2Cl)s1` the IC50 was “inactive”. With `CCN1C/C(=C/c2ccc(OC)c(O)c2)C(=O)/C(=C/c2ccc(OC)c(O)c2)C1` the IC50 was “inactive”. For `CCOc1ccc(N2C(=O)/C(=C\c3ccc(O)c(OC)c3)S(=O)(=O)C2c2cccc([N+](=O)[O-])c2)cc1` (configuration not stated), the IC50 was > 10 µM (inactive). In the case of `CC(C)Cn1c(N)c(C(=O)COC(=O)CC23CC4CC(CC(C4)C2)C3)c(=O)n(C)c1=O`, the IC50 is reported as “inactive”. In the case of `COc1ccc(CC2(CO)CCN(CC3=Cc4cc(Cl)ccc4OC3)CC2)cc1`, the IC50 is reported as 2.67 µM.
